Data published in patent US8603737B2, “Methods for identifying HCV protease inhibitors” (priority 2008, dated 2013).

What was measured:
Format in all cases: biochemical
[1] = target: T1, A156S mutant of the HCV NS3/4A 1b protease enzyme (Hepatitis C virus genotype 1b, UniProt P26663, A1182S); assay: HCV protease FRET assay, A156S mutant; settings: read-out: Inhibition, HCV A156S (IC50)
T1 construct: 10× stocks of NS3/4A protease enzyme from Bioenza; purchased Bioenza (Mountain View, Calif.)
Protocol: (§1) HCV Protease FRET Assay for Mutated NS3/4A 1b Enzymes
(§2) The protocol is a modified FRET-based assay (v—02) from In Vitro Resistance Studies of HCV Serine Protease Inhibitors, 2004, JBC, vol. 279, No. 17, pp 17508-17514. Inherent potency of compounds was assessed against A156S, A156T, D168A, and D168V mutants of the HCV NS3/4A 1b protease enzyme as follows: […]
(§3) 10× stocks of NS3/4A protease enzyme from Bioenza (Mountain View, Calif.) and 1.13×5-FAM/QXL™520 FRET peptide substrate from Anaspec (San Jose, Calif.) were prepared in 50 mM HEPES, pH 7.8, 100 mM NaCl, 5 mM DTT and 20% glycerol. 5 μL of each enzyme were pre-incubated in a Corning (#3573) 384-well, black, non-treated microtiter plate (Corning, N.Y.) for 30 min at 25° C. with a 0.5 μL volume of 50% DMSO and serially diluted compounds prepared in 50% DMSO. Protease reactions were started with the addition of 45 μL of the FRET substrate and monitored for 120 minutes at λex487/λem514 through Quad^4 monochromoters in a Synergy^4 plate reader from BioTek (Winooski, Vt.). At the conclusion of each assay, progress curves from each well were examined for linear reaction kinetics and fit statistics (R^2, absolute sum of squares). Initial velocity (0 minutes to 30+ minutes) from each reaction was determined from the slope of a plot of relative fluorescence units vs time (minutes) and then plotted against inhibitor concentration to estimate IC50 from log[Inhibitor] vs Response, Variable Slope model in GraphPad Prism from GraphPad Software (San Diego, Calif.). […]
(§4) The compound numbers correspond to the compound numbers in Table 3. Compounds having an activity designated as “A” provided an IC50≦10 nM; compounds having an activity designated as “B” provided an IC50>10 nM and ≦100 nM; compounds having an activity designated as “C” provided an IC50>100 nM and ≦1000 nM; and compounds having an activity designated as “D” provided an IC50>1000 nM and <10,000 nM.

[2] = target: T2, wild type HCV NS3/4A 1b protease enzyme (Hepatitis C virus genotype 1b, UniProt P26663); assay: HCV protease FRET assay, wild type NS3/4A 1b enzyme
T2 construct: 10× stocks of NS3/4A protease enzyme from Bioenza; purchased Bioenza (Mountain View, Calif.)
Text: Method B: HCV Protease FRET Assay for Wild Type and Mutated NS3/4A 1b Enzymes (IC50)
A quantitative, fluorescence resonance energy transfer (FRET)-based methodology was employed to identify HCV NS3/4A protease inhibitors. The assay employed a synthetic FRET peptide, derived from the HCV NS5A/5B cleavage site, with the HCV protease to evaluate the activity of compounds against the protease by monitoring the cleavage activity of the complex. A synthetic peptide which encompasses the NS5A-5B junction (NH2-[…]-COOH) (SEQ ID NO: 78) was labeled with Dabcyl and Edans at N- and C-termini, respectively (Invitrogen, Carlsbad, Calif.). Fluorescence measurement was used to estimate the IC50 value of the test compound. […] Upon cleavage of the FRET peptide by HCV NS3/4A proteinase complex (100 ng/mL), the fluorescence is recovered and can be continuously monitored at excitation/emission=340/490 nm.
Assay buffer: 2% CHAPS, 50 mM Tris pH 7.5, 50% glycerol, 2 uM M-2235 (Bachem) substrate. In a 50 μl reaction, add 49 μl assay buffer, 1 μl (1 U) HCV serine protease (Bioenza). Incubate 20 minutes at room temperature. The plate was read at either 350/460 nm (excitation/emission) on a fluorescent micro-plate reader or monitored at one-minute intervals to achieve the kinetic curve.
HCV Protease FRET Assay for WT and Mutated NS3/4A 1b Enzymes (IC50 —APP)
The following protocol was used to generate “apparent” IC50 (IC50—APP)) values as depicted in Table 3, below. Without wishing to be bound by any particular theory, it is believed that IC50—APP, contrasted with IC50 values, may provide a more useful indication of time-dependent inhibition, and are thus more representative of binding affinity. […] Protease reactions were immediately started after enzyme addition with the addition of 45 μL of the FRET substrate and monitored for 60-90 minutes at λex485/λem520 in a Synergy^4 plate reader from BioTek (Winooski, Vt.). […]

[3] = target: T3, D168A mutant of the HCV NS3/4A 1b protease enzyme (Hepatitis C virus genotype 1b, UniProt P26663, D1194A); assay: HCV protease FRET assay, D168A mutant; settings: read-out: Inhibition, HCV D168A (IC50)
T3 construct: 10× stocks of NS3/4A protease enzyme from Bioenza; purchased Bioenza (Mountain View, Calif.)
Protocol: as §1, §2, §3, §4

Compound	IC50 [1]	IC50 [2]	IC50 [3]
CC(C)(C)OC(=O)NC1CN(C(=O)CCl)CCC/C=C\[C@@H]2C[C@@]2(C(=O)NS(=O)(=O)C2CC2)NC(=O)[C@@H]2C[C@@H](OC(=O)N3Cc4cccc(F)c4C3)CN2C1=O (stereo partly drawn) [Compound 8]	< 0.01 µM	< 0.01 µM	0.01 to 0.1 µM
C=CC(=O)N(C)C[C@H](NC(=O)OC(C)(C)C)C(=O)N1C[C@H](OC(=O)N2Cc3cccc(F)c3C2)C[C@H]1C(=O)N[C@]1(C(=O)NS(=O)(=O)C2CC2)C[C@H]1C=C [Compound 4]	< 0.01 µM	< 0.01 µM	0.01 to 0.1 µM
C=C[C@@H]1C[C@]1(NC(=O)[C@@H]1C[C@@H](Oc2cc(-c3ccccc3)nc3cc(OC)ccc23)CN1C(=O)C(NC(=O)OC(C)(C)C)[C@@H](C)OC(=O)/C=C/C)C(=O)NS(=O)(=O)C1CC1 (stereo partly drawn) [Compound 3]	< 0.01 µM	< 0.01 µM	0.1 to 1 µM
